Data as given in ChEMBL document CHEMBL4014292, “Novel 11-norbetaenone isolated from an entomopathogenic fungus Lecanicillium antillanum” (Bioorg Med Chem Lett, 2017).
In brackets after ≈: the same amount, converted by molar mass. Activity calls are given as the source filed them. The calls are words filed in the database; no cut-off is given here.

Experiments:
[1] = system: Neutrophil; experiment: Anti-inflammatory activity in fMLP/CB-stimulated human neutrophils assessed as reduction in superoxide generation at 30 ug/mL preincubated for 5 mins followed by cytochalasin B addition for 3 mins and subsequent fMLP-stimulation for 10 mins by ferricytochrome c reduction based spectrophotometric assay; format: functional, cell-based
[2] = system: Staphylococcus aureus; experiment: Antimicrobial activity against Methicillin-resistant Staphylococcus aureus ATCC 33592 at 2 mg/ml after 24 hrs by agar well-diffusion method; format: functional
[3] = Cytotoxicity against CD34-positive human EPC at 25 to 50 ug/mL after 24 hrs by LDH release assay; format: cell-based
[4] = system: HepG2; experiment: Antiproliferative activity against human HepG2 cells at 20 ug/mL after 72 hrs by MTT assay; format: functional, cell-based
[5] = system: MDA-MB-231; experiment: Antiproliferative activity against human MDA-MB-231 cells at 20 ug/mL after 72 hrs by MTT assay; format: functional, cell-based
[6] = system: EPC; experiment: (§1) Antiangiogenic activity against human CD34-positive EPC assessed as inhibition of tube formation after 24 hrs by matrigel based inverted phase contrast microscopic analysis; format: functional, cell-based
[7] = as §1; format: functional, cell-based
[8] = system: A549; experiment: Antiproliferative activity against human A549 cells at 20 ug/mL after 72 hrs by MTT assay; format: functional, cell-based
[9] = system: Neutrophil; experiment: Anti-inflammatory activity in fMLP/CB-stimulated human neutrophils assessed as reduction in elastase release at 30 ug/mL using MeO-Suc-Ala-Ala-Pro-Val-p-nitroanilide as substrate preincubated for 5 mins followed by cytochalasin B addition and subsequent fMLP-stimulation for 10 mins by spectrophotometric assay; format: functional, cell-based

CC[C@@H](C)[C@H]1C=C[C@H]2[C@H](O)[C@@H](CO)C[C@@H](C)[C@@H]2[C@@]1(C)C(=O)CCO
Activity [1]: inactive
Activity [2]: inactive
Activity [3]: Non-Toxic
Activity [4]: inactive
Activity [5]: inactive
inhibition [6]: Dose-dependent effect
IC50 [7]: 34.1 µg/mL (≈ 101 µM)
Activity [8]: inactive
Activity [9]: inactive
